The record followed here is ChEMBL document CHEMBL4311957, “Recent advances in natural antifungal flavonoids and their derivatives” (Bioorg Med Chem Lett, 2019).

What is called MIC is the lowest concentration that inhibits growth of the organism. Low readings indicate a more susceptible organism, high ones a less susceptible organism. The MFC is the smallest concentration meeting the test's criterion for killing the fungus. Read a low MFC as more potent killing. Usually IC50 stands for the concentration at which inhibition is half-maximal. By inhibition is commonly meant the relative decrease from the control value, in per cent. Low values mean a response near the control, high ones a response far below the control.

Assay [1] relates to Candida albicans. Nature of the assay: Antifungal activity against Candida albicans after 48 hrs by broth micro dilution method. Type of assay: functional.
Assay [2] concerns Cryptococcus neoformans. Nature of the assay: Antifungal activity against Cryptococcus neoformans after 48 hrs by broth micro dilution method. In kind it is functional.
In assay [3] the test system is Candida parapsilosis. Kind of assay: Antifungal activity against Candida parapsilosis after 48 hrs by broth micro dilution method. Particulars: Lodderomyces parapsilosis. Type of assay: functional.
Assay [4] concerns Candida parapsilosis. Nature of the assay: Antifungal activity against Candida parapsilosis ATCC 22019 after 18 hrs by two-fold microdilution method. Particulars: Lodderomyces parapsilosis, ATCC 22019, 18 h. In kind it is functional. A general note: Broth dilution looks for growth in wells or tubes with falling amounts of substance.
A further assay relates to Nakaseomyces glabratus. Kind of assay: Antifungal activity against Candida glabrata ATCC 90030 after 18 hrs by two-fold microdilution method. Type of assay: functional. Particulars: ATCC 90030, 18 h.
The test system of assay [5] is Candida albicans. Nature of the assay: Antifungal activity against Candida albicans ATCC 90028 after 18 hrs by two-fold microdilution method. Type of assay: functional. Particulars: ATCC 90028, 18 h.
Assay [6] concerns Candida albicans. Kind of assay: Antifungal activity against Candida albicans. In kind it is functional, organism-based.
A further assay deals with Trichophyton. Nature of the assay: Antifungal activity against Trichophyton. In kind it is functional.
In assay [7] the test system is Cryptococcus neoformans. Kind of assay: Fungicidal activity against Cryptococcus neoformans clinical isolate after 48 hrs. In kind it is functional.
Assay [8] deals with Cryptococcus neoformans. Nature of the assay: Fungicidal activity against Cryptococcus neoformans ATCC 32264 after 48 hrs. In kind it is functional. Conditions: ATCC 32264, 48 h.
The next assay concerns Aspergillus fumigatus. Kind of assay: Fungicidal activity against Aspergillus fumigatus ATTC 26934 after 48 hrs. Type of assay: functional. Particulars: ATTC 26934, 48 h.
The subject of assay [9] is Trichophyton mentagrophytes. Nature of the assay: Fungicidal activity against Trichophyton mentagrophytes ATCC 9972 after 48 hrs. Type of assay: functional. Particulars: ATCC 9972, 48 h.
The test system of a further assay is Saccharomyces cerevisiae. Kind of assay: Fungicidal activity against Saccharomyces cerevisiae ATCC 9763 after 48 hrs. In kind it is functional. Conditions: ATCC 9763, 48 h.
In another assay the test system is Aspergillus niger. Kind of assay: Fungicidal activity against Aspergillus niger ATCC 9029 after 48 hrs. In kind it is functional. Particulars: ATCC 9029, 48 h.
Another assay concerns Aspergillus flavus. Nature of the assay: Fungicidal activity against Aspergillus flavus ATCC 9170 after 48 hrs. In kind it is functional. Conditions: ATCC 9170, 48 h.
In the next assay the test system is Nannizzia gypsea. Nature of the assay: Fungicidal activity against Microsporum gypseum CCC 115 after 48 hrs. Type of assay: functional. Particulars: CCC 115, 48 h.
Assay [10] deals with Trichophyton rubrum. Kind of assay: Fungicidal activity against Trichophyton rubrum CCC 110 after 48 hrs. Type of assay: functional. Particulars: CCC 110, 48 h.
In assay [11] the test system is Candida albicans. Nature of the assay: Fungicidal activity against Candida albicans ATCC 10231 after 48 hrs. In kind it is functional. Conditions: ATCC 10231, 48 h.
Assay [12] relates to Cryptococcus neoformans. Kind of assay: Antifungal activity against Cryptococcus neoformans ATCC 90112 after 48 hrs by CLSI-based method. Type of assay: functional. Particulars: ATCC 90112, 48 h.
The test system of assay [13] is Candida albicans. Nature of the assay: Synergistic antifungal activity against Candida albicans after 24 hrs in presence of Miconazole by checkerboard method. In kind it is functional, organism-based.
Assay [14] relates to Candida albicans. Kind of assay: Antifungal activity against Candida albicans ATCC 90028 after 12 to 18 hrs by ELISA. In kind it is functional.
Another assay deals with Malassezia furfur. Nature of the assay: Antifungal activity against Malassezia furfur KCTC 7744 after 12 to 18 hrs by ELISA. Type of assay: functional. On the technique in general: In an ELISA, binding on a coated surface is turned into a signal by an enzyme label.
Assay [15] concerns Candida albicans. Kind of assay: Antifungal activity against Candida albicans ATCC10231 at 50 ug/ml relative to control. In kind it is functional. Particulars: ATCC 10231.
The next assay has as its system Trichosporon beigelii. Kind of assay: Antifungal activity against Trichosporon beigelii KCTC 7707 after 12 to 18 hrs by ELISA. In kind it is functional.
For assay [16], the system named is Trichophyton rubrum. Nature of the assay: Antifungal activity against Trichophyton rubrum KCTC 6345 after 12 to 18 hrs by ELISA. Type of assay: functional.
Assay [17] deals with Candida albicans. Kind of assay: Antifungal activity against Candida albicans ATCC10231. Type of assay: functional. Particulars: ATCC 10231.
Assay [18] has as its system Candida parapsilosis. Kind of assay: Antifungal activity against Candida parapsilosis ATCC 22019 after 12 to 18 hrs by ELISA. Type of assay: functional. Conditions: Lodderomyces parapsilosis.
Assay [19] concerns Candida parapsilosis. Nature of the assay: Antifungal activity against Candida parapsilosis. In kind it is functional. Particulars: Lodderomyces parapsilosis.

Values after ≈ are worked out from the molar mass of the structure shown.

On to `O=C(O)[C@H]1O[C@@H](Oc2cc(O)c3c(=O)cc(-c4ccc(O)cc4)oc3c2)[C@H](O)[C@@H](O)[C@@H]1O`, for which the values for the minimal inhibitory concentration (MIC) against Candida albicans [1], against Cryptococcus neoformans [2] and with Candida parapsilosis [3] were above 256 µg/mL, 128 µg/mL (≈ 287 µM) and 64 µg/mL (≈ 143 µM), respectively.

For the compound `CC(C)=CCc1c(O)cc(O)c2c(=O)cc(-c3ccc(O)cc3)oc12`, the minimal inhibitory concentration (MIC) in the assay with Candida parapsilosis [4], against Nakaseomyces glabratus and against Candida albicans [5] was 15.6 µg/mL (≈ 46.2 µM) each time.

For `Cc1c(O)c2c(c3c1OC(C)(C)C=C3)O[C@H](c1ccc(O)c(O)c1)CC2=O`, the minimal inhibitory concentration (MIC) stood at 1.96 µg/mL (≈ 5.32 µM) against Candida albicans [6] and 1.95 µg/mL (≈ 5.29 µM) against Trichophyton.

For `Cc1ccc(C(=O)/C=C/c2ccc(O)c(OCCCN(C)C)c2)cc1`, the MFC (with Cryptococcus neoformans [7]; with Cryptococcus neoformans [8]; against Aspergillus fumigatus; in [9]; in the assay with Saccharomyces cerevisiae; in the assay on Aspergillus niger) was 62.5 µg/mL (≈ 184 µM) each time. Moreover, the MFC in the assay on Aspergillus flavus, with Nannizzia gypsea, in the assay with Trichophyton rubrum [10] and against Candida albicans [11] was 62.5 µg/mL (≈ 184 µM) each time.

For the compound `CN(C)CCCOc1cc(/C=C/C(=O)c2ccc(Cl)cc2)ccc1O`, the minimal fungicidal concentration (MFC) (in the assay with Cryptococcus neoformans [7]; in the assay on Cryptococcus neoformans [8]; against Aspergillus fumigatus; in assay [9]; in the assay on Saccharomyces cerevisiae; with Aspergillus niger) was 31.2 µg/mL (≈ 86.8 µM) throughout. For the same compound, the minimum fungicidal concentration (MFC) with Aspergillus flavus, in the assay with Nannizzia gypsea, in the assay on Trichophyton rubrum [10] and in the assay on Candida albicans [11] was 31.2 µg/mL (≈ 86.8 µM) each time.

In the assay with Cryptococcus neoformans [12], `C[C@@H]1[C@H](O)[C@@H](C)/C=C/C=C/C=C/C=C/C=C/C=C/C=C/[C@H](O[C@@H]2O[C@H](C)[C@@H](O)[C@H](N)[C@@H]2O)C[C@@H]2O[C@](O)(C[C@@H](O)C[C@@H](O)[C@H](O)CC[C@@H](O)C[C@@H](O)CC(=O)O[C@H]1C)C[C@H](O)[C@H]2C(=O)O` [AMPHOTERICIN B] returned an MIC of 0.03 µg/mL (≈ 0.0325 µM).

In the case of `COc1ccc(-c2cc(=O)c3c(O)cc(OC)cc3o2)cc1` [APIGENIN DIMETHYLETHER], the half-maximal inhibitory concentration (IC50) with Candida albicans [13] was found to be 51.6 µg/mL.

Consider `O=c1cc(-c2ccc(O)cc2)oc2cc(O)cc(O)c12` [APIGENIN], for which the MIC with Candida albicans [14] worked out at 5 µg/mL (≈ 18.5 µM); against Malassezia furfur it was 5 µg/mL (≈ 18.5 µM); against Trichosporon beigelii it was 5 µg/mL (≈ 18.5 µM); in the assay with Trichophyton rubrum [16], 5 µg/mL (≈ 18.5 µM); against Candida albicans [17], 125 µg/mL (≈ 463 µM); in the assay on Candida parapsilosis [18] it was 5 µg/mL (≈ 18.5 µM). Also, the inhibition at 50 µg/mL with Candida albicans [15] amounted to 99.8%.

Regarding `O=c1c(O[C@@H]2O[C@@H](CO)[C@H](O)[C@H]2O)c(-c2ccc(O)c(O)c2)oc2cc(O)cc(O)c12` [AVICULARIN], the minimum inhibitory concentration (MIC) against Candida albicans [6] fell in the range of 2 to 32 µg/mL (≈ 4.6 to 73.7 µM); in the assay with Aspergillus fumigatus, 2 to 16 µg/mL (≈ 4.6 to 36.8 µM); with Candida parapsilosis [19] it was 8 to 32 µg/mL (≈ 18.4 to 73.7 µM).
